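The compound was tested at five concentrations on cells cultured in 96-well plates, with a 48-hour exposure period. GI50 marks 50% less growth.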 Active and inactive are the calls of the source. No stated cut-off is given here; in the data, active = GI50 up to about 1.1 µM and inactive = higher.
Assays:
Test in all cases: NCI anticancer screen, dose series, 48 h
Malme-3M = tested on: Malme-3M
HOP-92 = tested on: HOP-92
DU-145 = tested on: DU-145
786-0 = tested on: 786-0
NCI/ADR-RES = tested on: NCI/ADR-RES
Hs-578T = tested on: Hs-578T
ACHN = tested on: ACHN
KM12 = tested on: KM12
MOLT-4 = tested on: MOLT-4
SN12C = tested on: SN12C
SK-MEL-2 = tested on: SK-MEL-2
CAKI-1 = tested on: CAKI-1
COLO 205 = tested on: COLO 205
SK-MEL-28 = tested on: SK-MEL-28
OVCAR-8 = tested on: OVCAR-8
A549 = tested on: A549
HCT-15 = tested on: HCT-15
MCF7 = tested on: MCF7
RXF 393 = tested on: RXF 393
A498 = tested on: A498

SMILES	GI50 (Malme-3M)	GI50 (HOP-92)	GI50 (DU-145)	GI50 (786-0)	GI50 (NCI/ADR-RES)	GI50 (Hs-578T)	GI50 (ACHN)	GI50 (KM12)	GI50 (MOLT-4)	GI50 (SN12C)	GI50 (SK-MEL-2)	GI50 (CAKI-1)	GI50 (COLO 205)	GI50 (SK-MEL-28)	GI50 (OVCAR-8)	GI50 (A549)	GI50 (HCT-15)	GI50 (MCF7)	GI50 (RXF 393)	GI50 (A498)
O=C(O)CCCNc1ncc2c(n1)-c1ccccc1OC2	> 100 µM (inactive)	> 100 µM (inactive)	> 100 µM (inactive)	> 100 µM (inactive)	> 100 µM (inactive)	> 100 µM (inactive)	> 100 µM (inactive)	> 100 µM (inactive)	> 100 µM (inactive)	> 100 µM (inactive)	> 100 µM (inactive)	> 100 µM (inactive)	> 100 µM (inactive)	> 100 µM (inactive)	> 100 µM (inactive)	> 100 µM (inactive)	> 100 µM	> 100 µM (inactive)	> 100 µM (inactive)	
COc1cc(-c2c3c(cc4c2OCO4)[C@@H](Nc2ccc4c(c2)Cc2cc(N[C@@H]5c6cc7c(cc6C(c6cc(OC)c(O)c(OC)c6)[C@H]6C(=O)OC[C@H]56)OCO7)ccc2-4)[C@H]2COC(=O)[C@@H]2C3)cc(OC)c1O (stereo partly drawn)	14.8 µM (inactive)	10.2 µM (inactive)	26.3 µM (inactive)	18.5 µM (inactive)	15.2 µM (inactive)	> 100 µM (inactive)	47.8 µM (inactive)	26.5 µM (inactive)	> 100 µM (inactive)	> 100 µM (inactive)		23.4 µM (inactive)	15.3 µM (inactive)	15.5 µM (inactive)	40.6 µM (inactive)	47.2 µM (inactive)	43.8 µM	27.9 µM (inactive)		44.3 µM (inactive)
CCCCCCCCCc1c(Cl)nc(Cl)nc1Cl	10.8 µM (inactive)	15.3 µM (inactive)	17.3 µM (inactive)	13.9 µM (inactive)	18.8 µM (inactive)	29.2 µM (inactive)	19.5 µM (inactive)	32.7 µM (inactive)	1.96 µM (inactive)	12.9 µM (inactive)		4.78 µM (inactive)	19.5 µM (inactive)	19.4 µM (inactive)	16.1 µM (inactive)	20.9 µM (inactive)	12.3 µM	18.4 µM (inactive)	14.4 µM (inactive)	19.6 µM (inactive)
S=C=NC1CCC(c2cc3ccccc3s2)(N2CCCCC2)CC1 (stereo not drawn)	1.61 µM (inactive)	1.68 µM (inactive)	2.08 µM (inactive)	1.78 µM (inactive)	1.84 µM (inactive)	2.08 µM (inactive)	1.93 µM (inactive)	1.87 µM (inactive)	0.127 µM (active)	1.82 µM (inactive)		1.88 µM (inactive)	1.98 µM (inactive)	1.6 µM (inactive)	1.95 µM (inactive)	3.01 µM (inactive)	1.53 µM	2.09 µM (inactive)	1.72 µM (inactive)	2.26 µM (inactive)
CCOc1cc(/C=N/c2ccc(Oc3ccc(Cl)cc3)c(Cl)c2)ccc1O	23.3 µM (inactive)	19.7 µM (inactive)	50.5 µM (inactive)	17 µM (inactive)	21.8 µM (inactive)	18.8 µM (inactive)	32.4 µM (inactive)	18.2 µM (inactive)	18.7 µM (inactive)	20.8 µM (inactive)	24.5 µM (inactive)	19.8 µM (inactive)	17.5 µM (inactive)	25.2 µM (inactive)	23 µM (inactive)	30.1 µM (inactive)	22.5 µM	31.9 µM (inactive)		12.4 µM (inactive)
CN(C)c1ccc(-c2nc(-c3cc4c(ccc5ccccc54)oc3=O)cs2)cc1	> 100 µM (inactive)	> 100 µM (inactive)	> 100 µM (inactive)	> 100 µM (inactive)	> 100 µM (inactive)	> 100 µM (inactive)	> 100 µM (inactive)	> 100 µM (inactive)	> 100 µM (inactive)	> 100 µM (inactive)	> 100 µM (inactive)	> 100 µM (inactive)	> 100 µM (inactive)	> 100 µM (inactive)	> 100 µM (inactive)	> 100 µM (inactive)	> 100 µM	> 100 µM (inactive)	> 100 µM (inactive)	

From ChEMBL document CHEMBL1201862, “PubChem BioAssay data set” (2004)
